These results are taken from patent US12245997B2, “Endoxifen for the treatment of bipolar I disorder” (priority 2020, dated 2025).

For data set [1], the system named is PKC. Description: Inhibition of PKC activity. Type of data set: biochemical. As to conditions: relative to tamoxifen.
The nature of data set [2]: Therapeutic index comparison. The note with it: as compared to divalproex sodium.
For data set [3], the system named is PKC. As to conditions: cited from earlier work.
For data set [4] the following is noted: in human; cited from earlier work.

For `CC/C(=C(\c1ccc(O)cc1)c1ccc(OCCNC)cc1)c1ccccc1.O=C(O)CC(O)(CC(=O)O)C(=O)O` [Endoxifen, (Z)-1-(4-Hydroxyphenyl)-1-{4-[2-(monomethylamino)ethoxy]phenyl}-2-phenyl-1-butene citrate], the “potency in inhibiting the PKC activity compared to tamoxifen” value with PKC [1] is on record as “four-fold higher potency”. In data set [2], the therapeutic index entry is recorded as “broad therapeutic index”.

`CC/C(=C(\c1ccccc1)c1ccc(OCCN(C)C)cc1)c1ccccc1` [Tamoxifen]: the PKC inhibition result in the data set on PKC [3] is “known to inhibit PKC”. The antimanic properties result in data set [4] was “demonstrate antimanic properties in human”.
